Values joined by “and” are separate entries in the source; they are usually repeats but may differ in a detail not shown here. Identical values can stand only once.
Assays:
[1] = tested on: normal human dermal fibroblasts; conditions: read-out: Relative IC50, Fibroblasts; 48 h incubation, MTS
Method: (§1) The cytotoxic potential of the complexes was evaluated by assessing their viability using the 3-(4,5-dimethylthiazol-2-yl)-5-(3-carboxymethoxyphenyl)-2-(4-sulfophenyl)-2H tetrazolium, inner salt (MTS) colorimetric assay in three tumor cell lines—ovarian carcinoma, A2780, colorectal carcinoma, HCT116, and colorectal carcinoma resistant to doxorubicin, HCT116-Dox and in normal human primary dermal fibroblasts (Figure 1 and Figure S7).
(§2) Normal dermal human fibroblasts, colorectal carcinoma cell line HCT116 and ovarian carcinoma cell line A2780 were acquired from ATCC (Manassas, VA, USA). HCT116 cell lines resistant to doxorubicin (HCT116-Dox) were derived from the HCT116 cell line, as previously described. Fibroblasts and HCT116 cells were cultured in Dulbecco’s modified Eagle medium (DMEM, Thermo Fisher Scientific) and A2780 cell line was cultured on Roswell Park Memorial institute 1640 (RPMI-1640, Thermo Fisher Scientific). Both media were supplemented with 10% (v/v) fetal bovine serum (FBS, Thermo Fisher Scientific) and a mixture of 100 U/mL penicillin and […] streptomycin. The supplemented media are referred to from this point on as DMEM or RPMI for simplicity.

[2] = tested on: doxorubicin-resistant HCT116 (HCT116-Dox); conditions: read-out: Relative IC50, HCT116-Dox; 48 h incubation, MTS
Method: as §1, §2

A2780 cells [3] = assay: Mitochondrial membrane potential (JC-1); type: cell-based, human; conditions: A2780, 48 h, IC50 of JHOR11, relative to vehicle control
Text: This dye accumulates in the mitochondria of cells, presenting red fluorescence, characteristic of the aggregated form (JC-1 aggregated), in healthy cells, and green fluorescence, characteristic of monomer form (JC-1 monomer), when the mitochondrial membrane is compromised.
The mitochondrial potential was quantified using the JC-1 mitochondrial membrane potential assay kit (Abnova, Taipé, Taiwan) according to manufacturer’s instructions and as previously described. Briefly, 2 × 10^5 A2780 cells were seeded on each well of a 6-well plate and incubated for 48 h with IC50 JHOR11, 0.1% (v/v) DMSO or 3.5 µM cisplatin. Cells with red (JC-1 aggregated) and green (JC-1 monomer) fluorescence were quantified with an Attune acoustic focusing flow cytometer and respective software (Thermo Fisher Scientific), and fluorescence ratios normalized to control samples incubated with DMSO.

zebrafish embryos = assay: In vivo toxicity assessment using zebrafish embryos
Method: The toxicity of the JHOR10 and JHOR11 compounds was assayed in zebrafish embryos. There was a NOEC (No Observed Effect Concentration) in the case of JHOR11 of 80 µM (Table 2). The NOEC is the concentration used for the xenotransplantation experiments in order not to affect the normal development of the embryos and being able, in parallel, to assay the effect of the compound over the injected cells. Apart from that, the mortality assayed in the toxicity assays supports the concentration obtained in the NOEC, with a low mortality of the embryos when they are incubated with JHOR11 (Figure 13 and Figure 14).
Wild-type zebrafish were housed in 30 L tanks within a water recirculation system under controlled physicochemical conditions: pH 7–7.5, temperature 26 ± 2 °C, conductivity 600 µS/cm and light/dark photoperiod of 14/10 h. The adult fish were fed Gemma Micro 300 (Skretting) twice a day. Fertilized eggs were collected after natural spawning and stored in Petri dishes for 48 h until being injected, or 72 h until being exposed to different concentrations of ruthenium compounds.
At 72 h post-fertilization (hpf), the embryos were exposed to increasing concentrations of two ruthenium compounds to determine toxicological estimates: LC50 with no observed effect concentration (NOEC) and lowest observed effect concentration (LOEC). The acute toxicity assessment of the compounds was performed following the standards of the OECD Test Guideline Program.
The embryos were individually transferred to 96-well plates containing 100 µL of each desired concentration. The plates were then placed in an incubator with a temperature of 26 °C and a photoperiod of 14 h of light and 10 h of darkness. The duration of the experiment was 96 h, and observations were made every 24 h recording the four lethal effects indicated by the OECD: embryo coagulation, absence of somite formation, absence of separation of the yolk tail and absence of heartbeat. All compounds were dissolved with dimethylsulfoxide (DMSO) with a final concentration of 1%. In each test, seven concentrations were analyzed for each compound, these being: JHOR10 (10, 20, 30, 40, 50, 55, 60 µM) and JHOR11 (50, 80, 100, 140, 200, 300, 400 µM).
For the evaluation of toxicity, the mortality data were analyzed by probit analysis with the ToxRat software (ToxRat Solutions. 2003. ToxRat®. Software for the statistical analysis of biotests. Alsdorf, Germany).

A2780 cells [4] = assay: Senescence assay (beta-galactosidase fluorescence); type: cell-based, human; conditions: A2780, 48 h, IC50 of JHOR11, relative to DMSO
Method: The senescence of A2780 cells after 48 h incubation with IC50 of JHOR11 was also analyzed to add more insights into the mechanism of action of the complex. Premature cellular senescence is an irreversible state of cell cycle arrest that occurs in response to intrinsic and extrinsic insults to the cell that induce DNA damage, oxidative stress, or nutrient depletion. The percentage of senescent cells was measured using the senescence assay kit (Abcam) that allows the quantification of the senescence-associated expression of beta-galactosidase activity by flow cytometry. […] [36].
The cell senescence analysis was performed using the Senescence assay kit (beta galactosidade fluorescence, Abcam, Cambridge, UK) according to the manufacturer’s instruction with few modifications. Briefly, A2780 cells were seeded in 24 well-plates to a final cell density of 4 × 10^5 cells/well. After 24 h incubation, to assure cell adhesion to the wells, the medium was replaced by fresh media supplemented with 0.1% (v/v) DMSO, for vector control, 3.5 µM cisplatin, 0.1 µM Doxorubicin, or IC50 JHOR11. […] Pelleted cells were washed with wash buffer, resuspended in the same buffer and the percentage of fluorescent cells in each sample was immediately measured in an Attune focusing flow cytometer and respective software (Thermo Fisher Scientific).

[5] = zebrafish embryos exposed from 72 hpf, 96 h

Cc1ccc(C(C)C)cc1.F[P-](F)(F)(F)(F)F.O=C1C(=O)c2cccnc2-c2ncccc21.[Cl][Ru+] [JHOR11]
IC50 [1]: 44.5 ± 2.2 µM
IC50 [2]: 6.8 ± 0.3 µM
JC-1 monomer/aggregate fluorescence ratio (A2780 cells [3]): decrease in the monomer/aggregate fluorescence ratio (but with no statistical significance)
LC50 (zebrafish embryos; [5]): 225 µM
NOEC (No Observed Effect Concentration) (zebrafish embryos; [5]): 80 µM and 80.00 µM
mortality of the embryos (zebrafish embryos; zebrafish embryos incubated with compound): low mortality
percentage of senescent cells (A2780 cells [4]): increased percentage of senescent cells
